These results are taken from PMC9023740, “Mucin-Type O-Glycosylation Proximal to β-Secretase Cleavage Site Affects APP Processing and Aggregation Fate” (Frontiers in Chemistry, 2022).

A short description of series [1]: Analytical RP-HPLC retention time, read as hydrophobicity/hydrophilicity. The note with it: C18 (Phenomenex Aeris Peptide C18 150 x 4.6 mm, 0.8 ml/min), 0.1% TFA water/acetonitrile, 0-60% B over 30 min, 214 nm, Supplementary S2-S9. The series is classed as physicochemical. Here is the method:
Purification of all (glyco)peptides and their corresponding analyses were performed on a 1,260 Agilent Infinity system. The analytical RP-HPLC method uses a Phenomenex Aeris Peptide C18 column (150 mm × 4.6 mm, 3.6 μm, 100 Å) at 0.8 ml/min flow rate or a Vydac Denali C18 column (250 mm × 4.6 mm, 5 μm, 120Å) at 1 ml/min flow rate, with 0.1% TFA in water (A) and 0.1% TFA in acetonitrile (B) as the eluents. The elution gradient for analytical RP-HPLC purification was 0–60% B over 30 min. The preparative RP-HPLC method uses the Grace Vydac monomeric C18 column (250 mm × 22 mm, 15–20 μm, 300Å) at 10 ml/min flow rate, with 0.1% TFA in water (A) and 0.1% TFA in acetonitrile (B) as the eluents. The elution gradient for preparative RP-HPLC purification was 0–50% over 110 min. The (glyco)peptides were detected at 214 nm by using a UV-Vis detector (Agilent 1,260 Infinity DAD). Purified (glyco)peptides were characterized by matrix-assisted laser desorption ionization time-of-flight mass spectrometry (MALDI-TOF MS) with a Voyager-DE STR system or a Bruker Microflex system, using α-cyano-4-hydroxycinnamic acid as matrix.
Automated solid-phase peptide synthesis (SPPS) approach on Tentagel S RAM resin was used to assemble the APP (glyco)peptides. […]

For series [2], the target named is T1, Recombinant human BACE-1 (rhBACE-1) (Homo sapiens, UniProt P56817).
T1 construct: purchased R&D Systems #ES004 and #931-AS, respectively (so in the source)
T1 sequence (P56817 46-457 limits assumed): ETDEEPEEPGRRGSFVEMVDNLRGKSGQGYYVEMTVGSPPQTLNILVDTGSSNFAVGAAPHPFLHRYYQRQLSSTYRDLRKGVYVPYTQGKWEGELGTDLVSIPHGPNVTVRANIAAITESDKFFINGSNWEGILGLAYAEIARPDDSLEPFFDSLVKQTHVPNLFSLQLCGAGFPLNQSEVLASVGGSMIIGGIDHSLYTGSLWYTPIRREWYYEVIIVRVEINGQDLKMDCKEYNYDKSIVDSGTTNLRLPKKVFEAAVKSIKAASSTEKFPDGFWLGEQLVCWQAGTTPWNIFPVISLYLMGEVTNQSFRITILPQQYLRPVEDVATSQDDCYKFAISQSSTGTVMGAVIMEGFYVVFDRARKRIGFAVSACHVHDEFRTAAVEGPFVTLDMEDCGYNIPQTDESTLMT
Nature of the series: Proteolytic cleavage of APP (glyco)peptides by BACE-1, RP-HPLC peak integration. The series is classed as biochemical. The settings on record: 100 μM substrate, 50 nM rhBACE-1, 0.1 M sodium acetate pH 4.0, 24 h, 37°C, dark; RP-HPLC peak integration at 214 nm, averaged from two injections, SD <5%. Here is the method: All APP-based substrates were prepared as 10 mM stocks in DMSO. Before proteolysis, the activity of BACE-1 was verified by the reaction with the fluorogenic BACE-1substrate Mca-[…](Dnp)RR-NH2 ([Koike et al., 1999]) as per the manufacturer’s instructions. For the proteolysis assay, APP-based substrates were diluted in BACE-1 activity buffer (0.1 M sodium acetate, pH 4.0) to the final assay concentration of 100 μM. BACE-1 was diluted to 50 nM final concentration. Reactions were incubated for 24 h at 37°C in the dark. After the incubation period, the enzyme cleavage solutions containing APP-based substrates and BACE-1 were analyzed using the analytical RP-HPLC method on the Aeris C18 column with 0.1% TFA in water (A) and 0.1% TFA in acetonitrile (B) as eluents and 0–60% B as the elution gradient over 30 min with a flow rate of 0.8 ml/min, and detection at 214 nm or the Vydac Denali C18 column with 0.1% TFA in water (A) and 0.1% TFA in acetonitrile (B) as eluents and 0–60% B as the elution gradient over 30 min with a flow rate of 1 ml/min, and detection at 214 nm. The identity of intact and cleaved (N- and C-terminal) fragments of (glyco)peptides in the absence and presence of BACE-1 (β-secretase) was confirmed by MALDI-TOF and their percentages were evaluated by the integration of the RP-HPLC peaks (averaged from two injections).
Glycosylation can alter substrate recognition and impact enzyme activity in either a positive (enhancing) or negative (inhibiting) manner ([Goettig, 2016]; [Goth et al., 2018]). The mucin-type O-linked glycosylation of a protein may not only affect its conformation but also affect its transport and localization in the cell ([Matsuura et al., 1989]; [Chen et al., 2002]). Proteases are highly regulated by post-translational modifications and drive fate, localization, and activity of many proteins ([Bond, 2019]). Certain mutations can also affect the subcellular localization of the cleavage event by crucial proteases and mediate a different cellular mechanism for the protein ([Haass et al., 1995]). […] Therefore, similar enzyme cleavage assays with BACE-1 were set up to explore the effect of the Swedish mutation, length of the amino acid sequence, glycan position and valency on the proteolytic susceptibility of 3–12. BACE1 produced two fragments upon cleavage of (glyco)peptides, for which yields were determined after 24 h treatment. The yields of intact peptide and fragments were evaluated by the RP-HPLC peaks integration (Table 3, and the Supplementary Material S20–S32).
3. Enzyme cleavage assays with APP (glyco)peptides 3-12 by RP-HPLC and MALDI-TOF MS
For the BACE1 enzyme cleavage assay, APP-based (glyco)peptide substrates were diluted in BACE1 activity buffer and incubated with BACE1 for 24 h at 37 °C in the dark. After the incubation period, the enzyme cleavage solutions containing APP-based (glyco)peptide substrates and BACE1 were analyzed using analytical RP-HPLC.
RP-HPLC gradient on Phenomenex Aeris Peptide C18 column (150 x 4.6 mm, 3.6 µm, 100Å):
Eluents were 0.1% TFA in water (A) and 0.1% TFA in acetonitrile (B). The elution gradient was 0-60%B in 30 minutes with a flow rate of 0.8 mL/min. Detection was at λ = 214 nm.
S*/T*= Ser(-α-GalNAc) 1/Thr(-α-GalNAc) 2
(a) APP665-680, 3 in activity buffer
(b) APP665-680 (3) + BACE1 in activity buffer […]

Series [3] can be described thus: CD spectroscopy, secondary structure content by BeStSel. It counts as physicochemical. The note with it: for RC (%) random coil / α-H (%) α-helix / β-AP (%) anti-parallel β-sheet / β-P (%) parallel β-sheet / β-T (%) β-turn: CD, BeStSel, 0.065 mg/ml, 25°C. The protocol:
All (glyco)peptides were analyzed for their secondary structure using circular dichroism (CD) spectroscopy on a Jasco-810 spectropolarimeter (Jasco, Easton, MD) in three solvent systems: water, 10 mM sodium phosphate buffer (pH 7.4), and 50% trifluoroethanol (TFE) in water (v/v) mixture. The CD spectra were recorded using a quartz cell of 1 mm optical path length over a wavelength range of […] with a scanning speed of 100 nm/min and a response time of 4 s at 25°C. A concentration of 0.065 mg/ml, determined using the analytical RP-HPLC method, gave the […] signal-to-noise ratio for all (glyco)peptides. All spectra were baseline-corrected to account for the signal contribution from solvent and then converted into molar ellipticity (deg cm^2 dmol^−1) ([Sreerama and Woody, 2000]). Lastly, the percentages of all secondary structures were determined using the BeStSel method ([Micsonai et al., 2018]; [Singh et al., 2021]).
To study the role of O-glycosylation on the conformation of APP glycopeptides, circular dichroism (CD) spectroscopy was used to probe the secondary structure in three different solvents, water, sodium phosphate buffer (10 mM, pH 7.4), and 50% trifluoroethanol (TFE) in water (v/v) (Figure 1). The spectra were further analysed for secondary structure estimations by Beta Structure Selection (BeStSel) method, specifically designed for the analysis of beta sheet-rich proteins (Table 2) ([Micsonai et al., 2015], [2018]).

Another series addresses T2, Aβ40 (Homo sapiens, UniProt P05067).
T2 construct: Aβ40 peptide was synthesized on a PS3 solid phase peptide synthesizer; made in house; host or cells: chemical solid-phase peptide synthesis (Fmoc), no expression host
Nature of the series: ThT aggregation kinetics assay of Aβ40 with APP (glyco)peptides. The note with it: 50 mM phosphate buffer pH 7.4, 20 µM ThT, 37°C.

The mark [4] stands for this setting: (B) 10 mM sodium phosphate buffer, pH 7.4.

Where only a bound is given, the exact number is not on record here.

T2 sequence (P05067 672-711 limits assumed): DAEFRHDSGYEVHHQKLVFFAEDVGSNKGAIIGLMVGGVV
Protocol for Aβ40: Lyophilized peptide powder was dissolved in aqueous NaOH solution (2 mM), and the pH was adjusted to ∼11 by using 100 mM NaOH solution. The solution was sonicated for 1 h in an ice−water bath and then filtered through a 0.22 μm filter (Millipore) and kept on ice before use. The concentration of the peptide solution was determined by using the tyrosine UV absorbance at 280 nm (ε = 1280 M^−1 cm^−1).
The aggregation kinetics of Aβ40 in the absence and presence of APP (glyco)peptides was performed using ThT binding assay. The monomerized Aβ40 peptide solution was diluted to a final concentration of 10 µM in 50 mM phosphate buffer (pH 7.4) and 20 µM ThT dye. For the co-incubation assays with APP (glyco)peptides, APP stock solutions of 120 µM were added to the prepared Aβ40 for final (glyco) peptide concentrations of 10 µM or 50 µM and Aβ40 concentration of 10 µM in 50 mM phosphate buffer (pH 7.4) with 20 µM ThT dye. […] The plate was sealed with a microplate cover and loaded into a Gemini SpectraMax EM fluorescence plate reader (Molecular Devices, Sunnyvale, CA) and incubated at 37°C. The ThT fluorescence was measured from the bottom of the plate at 10 min intervals, with 5 s of shaking, and with an excitation and emission wavelengths of 440 and 480 nm, respectively. […]
°C. ThT fluorescence was measured in 10 minute intervals.

Consider “IKT*EEISEVKM∼DAEFRHDSG [compound 8, native APP 661-680 glycopeptide with O-GalNAc on Thr^663]”, for which the “RP-HPLC t R” value in series [1] turned out to be 14.4 min. In series [2], the “BACE-1 activity, Cleaved (%)” value is 8.46% and the “BACE-1 activity, Recovered (%)” value is 91.5%. In series [3] ((A) water), the “RC (%) random coil” value came out at 87.4%, the “α-H (%) α-helix” value stood at 1.4%, the “β-AP (%) anti-parallel β-sheet” value came to 5.4% and the “β-P (%) parallel β-sheet” value amounted to 0.0%. Also, the “β-T (%) β-turn” value in series [3] ((A) water) was 5.7%. In series [3] (setting [4]), the “RC (%) random coil” value is 30.4%, the “α-H (%) α-helix” value is 8.8%, the “β-AP (%) anti-parallel β-sheet” value was determined as 42.6% and the “β-P (%) parallel β-sheet” value came out at 0.0%. Moreover, the “β-T (%) β-turn” value in series [3] (setting [4]) is 18.3%. Moreover, in series [3] ((C) TFE/water = 1:1 (v/v)), the “RC (%) random coil” value worked out at 8.3%, the “α-H (%) α-helix” value was determined as 85.7%, the “β-AP (%) anti-parallel β-sheet” value worked out at 0.0% and the “β-P (%) parallel β-sheet” value is listed as 0.0%. For the same compound, the “β-T (%) β-turn” value in series [3] ((C) TFE/water = 1:1 (v/v)) is on record as 6.0%.

Consider `CC(=O)N[C@H]1C(O)O[C@H](CO)[C@H](O)[C@@H]1O` (mixture of isomers) [GalNAc, N-acetylgalactosamine], for which the “Δt50 (t50 with additive - Aβ40 t50)” value at Aβ40 (additive 10 and 50 µM, Aβ40 10 µM) is reported as less than 0.5 h.

Consider “IKT*EEIS*EVKM∼DAEFRHDSG [compound 9, native APP 661-680 glycopeptide with O-GalNAc on Thr^663 and Ser^667]”, for which, in series [2], the “BACE-1 activity, Cleaved (%)” value is listed as 4.12% and the “BACE-1 activity, Recovered (%)” value was 95.9%. Further, in series [3] ((A) water), the “RC (%) random coil” value was found to be 22.4%, the “α-H (%) α-helix” value stood at 12.8%, the “β-AP (%) anti-parallel β-sheet” value is listed as 48.2% and the “β-P (%) parallel β-sheet” value was found to be 0.0%. Further, in series [3] ((A) water), the “β-T (%) β-turn” value stood at 16.6%. For the same compound, in series [3] (setting [4]), the “RC (%) random coil” value is 48.7%, the “α-H (%) α-helix” value is 9.5%, the “β-AP (%) anti-parallel β-sheet” value is 24.6% and the “β-P (%) parallel β-sheet” value is reported as 0.0%. In addition, the “β-T (%) β-turn” value in series [3] (setting [4]) was 17.1%. Besides, in series [3] ((C) TFE/water = 1:1 (v/v)), the “RC (%) random coil” value is 0.0%, the “α-H (%) α-helix” value was 94.4%, the “β-AP (%) anti-parallel β-sheet” value amounted to 0.0% and the “β-P (%) parallel β-sheet” value stood at 0.0%. Further, the “β-T (%) β-turn” value in series [3] ((C) TFE/water = 1:1 (v/v)) turned out to be 5.6%. The “β-structure (anti-parallel β-sheet, parallel β-sheet, and β-turn)” value in series [3] (water, sum of BeStSel contents) is recorded as 64.8%.

Turning to “Aβ40: amyloid-β 40 peptide made by Fmoc SPPS, model peptide for studying protein aggregation”, the “half time (t 50) of the growth phase of Aβ40 amyloidogenesis” value in the series with Aβ40 (Aβ40 10 μM alone, triplicate) was “approximately 8 h”.
